Experimental data taken from PMC6587507, “Comparison of the metabolism of 10 chemicals in human and pig skin explants” (Journal of Applied Toxicology, 2018).
Read-outs that look alike come from different tables or passages of the source. Marks after values point to notes of the source that are not given here. One block for each molecule: values may come before it.

How the values were obtained:
pig ear skin explants [1] = experiment: Cutaneous distribution and mass balance of radioactivity in pig skin explants
Experimental: (§1) Human abdominal skin was obtained (with consent for research from a commercial supplier [L’Union Clinic, Rangueil hospital and Icelltis, Toulouse, France] with certified ethical procedures) from six male and 34 female healthy donors, 41 ± 11 years of age, undergoing cosmetic surgery. Abdominal skin was kept at 4°C during transports and placed in culture within 3 hours of surgery. Pig ear skin was a waste product of the meat industry (without hot steam treatment) from domestic pigs (female Pietrain breed, 6 months old, 80‐100 kg) obtained from a local slaughterhouse (Montauban, France). Ears were taken from the animals within 5 minutes of slaughter and were kept at 4°C during transport to the laboratory, which lasted a maximum of 2 hours. Pig skin samples were dried and then gently shaved.
(§2) The experiment and the preparation of the culture medium were performed under sterile conditions. Human and pig skin was cut with a dermatome to a thickness of 450 ± 50 μm. Skin punches were seeded dermal side down in polycarbonate Transwell® inserts from Corning Life Sciences (Avon, France; 4.16 cm^2 application area with an 8 μm pore size filter). […] The inserts were placed in a six‐well plate containing 1.5 mL culture medium and the skin explants incubated in a standard incubator at 37°C, under an atmosphere of 5% CO2 and 50 ± 10% relative humidity. The culture medium was Dulbecco's modified Eagle medium without phenol red supplemented with 8 mM L‐glutamine, 2 μg/mL streptomycin/penicillin, 25 ng/mL fungizone and 50 ng/mL gentamycin. Skin explants were incubated for 1 hour before application of the formulation.
(§3) The dosing volume was 10 μL/cm^2. For pig skin metabolism studies, which were carried out before the human skin experiments to ensure the analytics were optimal, 2.4 nmol/cm^2 of each chemical (only the ^14C‐labeled form) was applied on the skin and incubated for 24 hours for the measurement of metabolites in the medium. These tissues were further incubated for a total of 48 hours, with a replacement of the culture medium after 24 hours. This longer incubation time and the standard doses of 2.4 nmol/cm^2 were used to maximize the likelihood of the skin forming metabolites to develop analytical methods. The metabolites profiles in pig and human skin were compared in the medium sample at 24 hours of incubation. The metabolite profiles for the 48‐hour timepoint are not reported here since humans skin metabolism was measured at 24 hours only; however, for completeness, the distribution of radioactivity at the end of both pig (48 hours) and human (24 hours) skin incubations is reported. […] The doses were obtained by mixing radiolabeled and cold chemical. One replicate disc per donor and per dose was used. All chemicals were tested on four donors of pig and human skin, except for 2‐AAF and 4‐amino‐3‐nitrophenol (4‐A‐3‐NP), for which three donors were used. The medium was removed after 24 hours of incubation and stored at −20°C for analysis.
(§4) At the end of the experiment, the trans‐wells were dismantled and washed with appropriate solvent for each chemical. […] The cotton swabs were placed in 5 mL of appropriate solvent in a scintillation counting flask and placed in a sonicator bath for 20 minutes. Aliquots of 1 mL were counted by liquid scintillation, after addition of 15 mL of scintillation liquid. Tissue culture inserts were washed with 10 mL of appropriate solvent. One aliquot of 1 mL was counted by liquid scintillation, after addition of 15 mL of scintillation liquid. After media removal, wells were washed twice with 1 mL of the appropriate solvent. Washing solutions were counted by liquid scintillation, after addition of 15 mL of scintillation liquid.
(§5) Pig skin explants were digested using 3 mL Soluable (60°C for 24 hours) and counted by liquid scintillation. Skin extraction process was adapted according to the physicochemical properties of each chemical and its potential metabolites.

[2] = system: human abdominal skin explants; experiment: Cutaneous distribution and mass balance of radioactivity in human skin explants
Experimental: as §1, §2, §3, §4, §5

[3] = ref Chemspider (www.chemspider.com), cited from earlier work
[4] = system: human abdominal skin explants
Experimental: as §1, §2, §3
(§6) After centrifugation, a 100 μL aliquot of the extract was counted by liquid scintillation. The pellet was dissolved in 3 mL Soluable (60°C, 24 hours) and then counted by liquid scintillation.
(§7) Analysis of the chemicals and their metabolites in medium after 24 hours of incubation with pig and human skin was measured by radio‐high‐performance liquid chromatography (HPLC) using an HPLC 1100 Series, Agilent and a Flow Scintillation Analyzer, Radiomatic 610 TR, Perkin Elmer (Villebon‐sur‐Yvette, France). […] To confirm that metabolites were the same in pig and human skin, medium samples were co‐injected on the new column. The metabolites were identified by LC‐electrospray ionization‐HRMS (HPLC‐ESI‐HRMS) with a RSLC3000 HPLC system coupled to a LTQ‐Orbitrap XL mass spectrometer (Thermo Scientific). The HPLC analytical conditions for identification and quantification of the metabolites for each chemical are summarized in Supporting information Table S1.

pig ear skin explants [5] = system: pig ear skin explants
Experimental: as §1, §2, §3, §6, §7

[6] = pig skin, end of incubation (48 h), mean ± SD
[7] = human skin, end of incubation (24 h), mean ± SD
[8] = cinnamyl alcohol applied to human skin, 24 h
[9] = cinnamyl alcohol applied to pig skin, 24 h
[10] = cinnamyl alcohol applied to pig skin, medium 24 h
[11] = propyl paraben applied to human skin, 24 h
[12] = propyl paraben applied to pig skin, 24 h
[13] = vanillin applied to human skin, 24 h
[14] = vanillin applied to pig skin, 24 h

Molecule: CC(=O)Nc1ccc2c(c1)Cc1ccccc1-2 [2‐AAF, 2‐acetyl aminofluorene]
% Radioactivity in culture media after 24 h (pig ear skin explants [1]; pig skin, 2.4 nmol/cm^2): 52.8 ± 2.3%
Mass balance (% of applied dose at end of incubation) (pig ear skin explants [1]; pig skin, 48 h, 2.4 nmol/cm^2): 87.8 ± 1.1 % of applied dose
Medium radioactivity (pig ear skin explants [1]; [6]): 73.9 ± 1.1 % of the applied dose
Skin radioactivity (pig ear skin explants [1]; [6]): 12.6 ± 1.5 % of the applied dose
Skin surface radioactivity (pig ear skin explants [1]; [6]): 1.4 ± 0.4 % of the applied dose
% Radioactivity in culture media after 24 h ([2]; human skin, 24 h): 48.3 ± 4.2%
Mass balance (% of applied dose at end of incubation) ([2]; human skin, 24 h): 91.6 ± 4.5 % of applied dose
Medium radioactivity [2, 7]: 48.3 ± 4.2 % of the applied dose
Skin radioactivity [2, 7]: 40.5 ± 5.5 % of the applied dose
Skin surface radioactivity [2, 7]: 2.8 ± 0.3 % of the applied dose
Maximum solubility in ethanol ([3]; in ethanol): 9600 µg/mL
LogP [3]: 3.10
Maximum water solubility ([3]; water): 4 µg/mL

Molecule: Nc1ccc(OC2OC(C(=O)O)C(O)C(O)C2O)cc1[N+](=O)[O-] (stereo not shown) [4‐A‐3‐NP‐glucuronide]
Amount of metabolite in the medium after 24 h [4]: 35.0 ± 2.4 % Applied dose
Amount of metabolite in the medium after 24 h (pig ear skin explants [5]): 45.5 ± 0.2 % Applied dose

Molecule: Nc1ccc(OS(=O)(=O)O)cc1[N+](=O)[O-] [4‐A‐3‐NP‐sulfate]
Amount of metabolite in the medium after 24 h [4]: 9.98 ± 2.7 % Applied dose
Amount of metabolite in the medium after 24 h (pig ear skin explants [5]): 1.8 ± 0.3 % Applied dose

Molecule: O=C(O)c1ccccc1 [B (benzoic acid), benzoic acid]
Amount of metabolite in the medium after 24 h [4, 8]: 0.0 ^* % Applied dose
Amount of metabolite in the medium after 24 h (pig ear skin explants [5]; [9]): 4.8 ± 1.0 % Applied dose
Metabolite as share of the total metabolites (pig ear skin explants [5]; [10]): 8 % of the total metabolites

Molecule: Cn1c(=O)c2c(ncn2C)n(C)c1=O [Caffeine]
% Radioactivity in culture media after 24 h (pig ear skin explants [1]; pig skin, 2.4 nmol/cm^2): 72.0 ± 4.0%
Mass balance (% of applied dose at end of incubation) (pig ear skin explants [1]; pig skin, 48 h, 2.4 nmol/cm^2): 109.2 ± 3.3 % of applied dose
Skin radioactivity (pig ear skin explants [1]; [6]): 8.4 ± 0.4 % of the applied dose
Skin surface radioactivity (pig ear skin explants [1]; [6]): 8.8 ± 10.6 % of the applied dose
% Radioactivity in culture media after 24 h ([2]; human skin, 24 h): 81.4 ± 3.3%
Mass balance (% of applied dose at end of incubation) ([2]; human skin, 24 h): 104.0 ± 0.7 % of applied dose
Medium radioactivity [2, 7]: 81.4 ± 3.3 % of the applied dose
Skin radioactivity [2, 7]: 21.8 ± 2.5 % of the applied dose
Skin surface radioactivity [2, 7]: 0.8 ± 0.8 % of the applied dose

Molecule: O=c1ccc2ccc(O)cc2o1 [HC, 7‐hydroxycoumarin]
Amount of metabolite in the medium after 24 h ([4]; 7‐EC applied to human skin, 24 h): 1.4 ± 0.4 % Applied dose
Amount of metabolite in the medium after 24 h (pig ear skin explants [5]; 7‐EC applied to pig skin, 24 h): 1.5 ± 0.8 % Applied dose

Molecule: O=C(O)[C@H]1O[C@@H](Oc2ccc3ccc(=O)oc3c2)[C@H](O)[C@@H](O)[C@@H]1O [HC‐glucuronide]
Amount of metabolite in the medium after 24 h [4]: 2.2 ± 1.2 % Applied dose
Amount of metabolite in the medium after 24 h (pig ear skin explants [5]): 4.9 ± 0.9 % Applied dose

Molecule: O=c1ccc2ccc(OS(=O)(=O)[O-])cc2o1.[K+] [HC‐sulfate]
Amount of metabolite in the medium after 24 h [4]: 0.9 ± 0.6 % Applied dose
Amount of metabolite in the medium after 24 h (pig ear skin explants [5]): 2.6 ± 0.9 % Applied dose

Molecule: O=C(O[C@@H]1O[C@H](C(=O)O)[C@@H](O)[C@H](O)[C@H]1O)c1ccccc1 [II (benzoic acid glucuronide), benzoic acid glucuronide]
Amount of metabolite in the medium after 24 h [4]: 4.6 ± 0.4 % Applied dose
Amount of metabolite in the medium after 24 h (pig ear skin explants [5]): 0.5 ± 0.04 % Applied dose

Molecule: O=C(O)/C=C\C(=O)O [II (maleic acid), maleic acid]
Amount of metabolite in the medium after 24 h [4, 11]: 0.5 ± 0.03 % Applied dose
Amount of metabolite in the medium after 24 h (pig ear skin explants [5]; [12]): 5.6 ± 0.3 % Applied dose

Molecule: O=Cc1ccc(O)c(O)c1 [IV (Protocatechuic aldehyde), protocatechuic aldehyde]
Amount of metabolite in the medium after 24 h [4, 13]: 2.4 ± 1.1 % Applied dose
Amount of metabolite in the medium after 24 h (pig ear skin explants [5]; [14]): 20.7 ± 1.0 % Applied dose
Amount of metabolite in the medium after 24 h (pig ear skin explants [5]; vanillin applied to pig skin, 24 h, listed as protocatechuic aldehyde): 21 % Applied dose

Molecule: O=C(O)CNC(=O)c1ccccc1 [V (benzoic acid‐glycine conjugate), benzoylglycine]
Amount of metabolite in the medium after 24 h [4, 8]: 1.3 ± 0.1 % Applied dose
Amount of metabolite in the medium after 24 h (pig ear skin explants [5]; [9]): 4.4 ± 1.1 % Applied dose

Molecule: hydroxycinnamic acid [I (HCA)]
Amount of metabolite in the medium after 24 h [4]: 18.0 ± 0.9 % Applied dose
Metabolite as share of the total metabolites [4]: 25 % of the total metabolites
Amount of metabolite in the medium after 24 h (pig ear skin explants [5]): 15.7 ± 1.3 % Applied dose
Metabolite as share of the total metabolites (pig ear skin explants [5]): 27 % of the total metabolites

Further lines, results first:

Amount of metabolite in the medium after 24 h (pig ear skin explants [5]): 2.9 ± 0.8 % Applied dose
Molecule: COc1cc(C=O)ccc1O[C@@H]1O[C@H](C(=O)O)[C@@H](O)[C@H](O)[C@H]1O [III (vanillin glucuronide), vanillin glucuronide]

Number of metabolites detected in the culture medium ([4]; both, human, 24 h): 12
Parent compound in the medium after 24 h ([4]; both, human, 24 h): 0.2 ± 0.2 % Applied dose
Total metabolites in the medium after 24 h ([4]; both, human, 24 h): 55.8 ± 2.9 % Applied dose
Parent compound in the medium after 24 h (pig ear skin explants [5]; female, Pietrain, pig, 24 h): 0.0 % Applied dose
Total metabolites in the medium after 24 h (pig ear skin explants [5]; female, Pietrain, pig, 24 h): 50.3 ± 1.1 % Applied dose
Mass balance (% of applied dose at end of incubation) (pig ear skin explants [1]; female, Pietrain, pig, 48 h): 98.7 ± 3.3 % of applied dose
Medium radioactivity (pig ear skin explants [1]; female, Pietrain, pig, 48 h): 77.8 ± 4.8 % of the applied dose
Skin radioactivity (pig ear skin explants [1]; female, Pietrain, pig, 48 h): 15.9 ± 3.0 % of the applied dose
Skin surface radioactivity (pig ear skin explants [1]; female, Pietrain, pig, 48 h): 5.0 ± 1.8 % of the applied dose
% Radioactivity in culture media after 24 h ([2]; both, human, 24 h): 66.0 ± 9.2%
Mass balance (% of applied dose at end of incubation) ([2]; both, human, 24 h): 91.8 ± 6.6 % of applied dose
Medium radioactivity ([2]; both, human, 24 h): 61.5 ± 3.9 % of the applied dose
Skin radioactivity ([2]; both, human, 24 h): 27.6 ± 7.0 % of the applied dose
Skin surface radioactivity ([2]; both, human, 24 h): 2.8 ± 2.3 % of the applied dose
Molecule: CCCOC(=O)c1ccc(O)cc1 [Propyl paraben]

Amount of metabolite in the medium after 24 h [4]: 33.7 ± 0.6 % Applied dose
Amount of metabolite in the medium after 24 h (pig ear skin explants [5]): 48.6 ± 0.8 % Applied dose
Molecule: O=C(O)C1OC(Oc2cccc(O)c2)C(O)C(O)C1O (stereo not shown) [R‐glucuronide]

Amount of metabolite in the medium after 24 h [4]: 8.2 ± 0.1 % Applied dose
Amount of metabolite in the medium after 24 h (pig ear skin explants [5]): 0.5 ± 0.03 % Applied dose
Molecule: O=S(=O)(O)Oc1cccc(O)c1 [R‐sulfate]

Amount of metabolite in the medium after 24 h [4, 13]: 33.5 ± 4.0 % Applied dose
Amount of metabolite in the medium after 24 h ([4]; vanillin applied to human skin, 24 h, listed as vanillic acid): 34 % Applied dose
Amount of metabolite in the medium after 24 h (pig ear skin explants [5]; [14]): 5.8 ± 0.1 % Applied dose
Molecule: COc1cc(C(=O)O)ccc1O [V (vanillic acid), vanillic acid]

Amount of metabolite in the medium after 24 h [4, 8]: 0.8 ± 1.5 % Applied dose
Amount of metabolite in the medium after 24 h (pig ear skin explants [5]; [9]): 9.0 ± 0.4 % Applied dose
Metabolite as share of the total metabolites (pig ear skin explants [5]; [10]): 15 % of the total metabolites
Molecule: O=C(O)/C=C/c1ccccc1 [VI (cinnamic acid), cinnamic acid]

Amount of metabolite in the medium after 24 h [4, 11]: 42.09 ± 2.8 % Applied dose
Amount of metabolite in the medium after 24 h (pig ear skin explants [5]; [12]): 9.5 ± 0.6 % Applied dose
Amount of metabolite in the medium after 24 h (pig ear skin explants [5]; propyl paraben applied to pig skin, 24 h, listed as 4‐hydroxybenzoic acid): 9.5 % Applied dose
Molecule: O=C(O)c1ccc(O)cc1 [X (4‐HBA), 4‐hydroxybenzoic acid]
